# Measurements reported in patent EP0879051B9, “RATE-CONTROLLED TRANSDERMAL ADMINISTRATION OF RISPERIDONE” (JANSSEN PHARMACEUTICA N.V., priority 1995, dated 1996).
# Test: In vitro transdermal permeation of risperidone, two-compartment diffusion cell
# Type: in vitro ADME, hairless rats
# Protocol: Experimental Part : In vitro study of the transdermal permeation of risperidone.
# An in vitro model using a vertical, two-compartment diffusion cell assembly mounted with freshly excised full thickness abdominal skin of hairless rats (Iffa credo) was used in this study. […] The receptor solution in all experiments consisted of Hanks Balanced Salt Solution (Gibco BRL) with sodium azide). The skin permeation profile was followed for up to 50 h by sampling the receptor solution and assaying the drug concentration by measuring the radioactivity (Ready Safe, Beckmann-Wallac 1410LKB). The ratio of the cumulated quantities detected in the receptor compartment to the skin area (ng/cm^2) were plotted in function of the time and the flux of risperidone through the skin in the presence of various solvents and skin permeation enhancers was deduced from the linear part of the plotted results.
# [1] = Experiment 2: donor borate buffer pH 10, 0.1 M (900 µl/ml) + ethanol (95%; 100 µl/ml) + risperidone (100 µg/ml)
# [2] = Experiment 4: donor propylene glycol + lauric acid (LA) 5%, risperidone 10 mg/ml
# [3] = Experiment 4: donor propylene glycol + oleic acid (OA) 5%, risperidone 10 mg/ml
# [4] = donor propylene glycol, 0% enhancer, risperidone 10 mg/ml
structure (smiles),measurement,setting,value
"Cc1nc2n(c(=O)c1CCN1CCC(c3noc4cc(F)ccc34)CC1)CCCC2 [risperidone, 3-[2-[4-(6-fluoro-1,2-benzisoxazol-3-yl)-1-piperidinyl]ethyl]-6,7,8,9-tetrahydro-2-methyl-4H-pyrido[1,2-a]pyrimidin-4-one]",flux,"Experiment 1: donor borate buffer pH 10, 0.1 M + risperidone at 40mg/ml",0.181 µg/cm^2.h
same,flux,[1],0.869 µg/cm^2.h
same,latency period,[1],13.9 h
same,flux (1%),"Experiment 3: donor propylene glycol + eucalyptus oil 1%, risperidone 10 mg/ml",4.54 µg/cm^2.h
same,latency period (5%),"Experiment 3: donor propylene glycol + eucalyptus oil 5%, risperidone 10 mg/ml",6.2 h
same,flux (5%),"Experiment 3: donor propylene glycol + eucalyptus oil 5%, risperidone 10 mg/ml, very high flux probably due to skin damage",126.74 µg/cm^2.h
same,latency period (LA %),"Experiment 3: donor propylene glycol + eucalyptus oil (printed 'LA %'), risperidone 10 mg/ml",15.2 h
same,flux (5% LA),[2],15.39 µg/cm^2.h
same,latency period (5% LA),[2],4.3 h
same,flux (5% OA),[3],18.9 µg/cm^2.h
same,latency period (5% OA),[3],17 h
same,flux (0%),[4],3.89 µg/cm^2.h
same,latency period (0%),[4],14.2 h
